Measurements reported in publication PMC8151276, “An Integrated Approach toward NanoBRET Tracers for Analysis of GPCR Ligand Engagement” (Molecules, 2021).

Assays:
[1] = target: T1, LGR6 (Homo sapiens, UniProt Q9HBX8); assay: NanoBRET screen HiBiT-LGR6 in HEK293; format: binding
T1 construct: purchased Promega (in-house HiBiT-GPCR construct library, NanoBRET)
T1 sequence (Q9HBX8 25-967): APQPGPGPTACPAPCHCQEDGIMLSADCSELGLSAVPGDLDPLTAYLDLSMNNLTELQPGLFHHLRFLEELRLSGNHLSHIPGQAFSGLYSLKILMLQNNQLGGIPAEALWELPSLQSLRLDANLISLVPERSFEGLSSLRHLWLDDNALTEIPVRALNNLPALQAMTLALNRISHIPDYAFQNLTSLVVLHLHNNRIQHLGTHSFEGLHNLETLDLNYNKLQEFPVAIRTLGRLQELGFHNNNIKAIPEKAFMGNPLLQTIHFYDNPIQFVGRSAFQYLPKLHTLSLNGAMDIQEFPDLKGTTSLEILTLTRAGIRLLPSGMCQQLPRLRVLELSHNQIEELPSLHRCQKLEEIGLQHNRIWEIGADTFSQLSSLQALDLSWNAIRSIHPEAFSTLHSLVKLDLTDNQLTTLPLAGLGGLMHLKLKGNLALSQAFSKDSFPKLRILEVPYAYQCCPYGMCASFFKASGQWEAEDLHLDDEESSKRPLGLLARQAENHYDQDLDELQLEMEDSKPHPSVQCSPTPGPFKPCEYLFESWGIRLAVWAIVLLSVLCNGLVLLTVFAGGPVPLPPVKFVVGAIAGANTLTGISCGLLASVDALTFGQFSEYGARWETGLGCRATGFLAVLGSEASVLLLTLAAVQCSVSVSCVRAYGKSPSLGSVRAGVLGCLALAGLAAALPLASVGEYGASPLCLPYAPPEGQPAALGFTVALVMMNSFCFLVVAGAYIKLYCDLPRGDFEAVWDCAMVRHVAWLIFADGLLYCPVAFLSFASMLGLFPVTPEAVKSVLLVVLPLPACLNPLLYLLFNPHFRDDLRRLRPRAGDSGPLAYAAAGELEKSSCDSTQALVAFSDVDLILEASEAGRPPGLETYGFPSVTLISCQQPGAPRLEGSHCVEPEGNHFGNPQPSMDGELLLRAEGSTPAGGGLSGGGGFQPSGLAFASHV
Procedure: (§1) Each tracer candidate was screened across the entire library of HiBiT-GPCR constructs using NanoBRET as the detection modality. As depicted in Figure 4A, the specificity of interactions was evaluated through decrease in BRET due to competitive displacement of a bound tracer by excess parental compound. Each tracer was analyzed for binding to each HiBiT-GPCR fusion in the absence and in the presence of competing parental compound. Briefly, HEK293 cells were transfected with HiBiT-GPCR constructs diluted into promoterless DNA to reduce expression and maximize translocation to the cell surface. Each tracer candidate was then screened at concentrations of 1 μM and 0.1 μM across cells expressing these fusions. Cells were treated for 1.5 h with tracer either alone or in the presence of 20 μM competing parental compound (i.e., control). BRET was measured upon addition of purified LgBiT and subsequent complementation with HiBiT genetically fused to a GPCR. The specificity of interactions was assessed through a decrease in BRET signal due to competitive displacement of the bound tracer. To further gauge the robustness of these interactions, the fold response over the control (i.e., BRETtracer/BRETcontrol) was calculated. We chose a 1.5-fold response, which translates to ≥7-fold signal over noise as the minimal threshold required to score an interaction as positive. […]. Below we highlight the screening results obtained for our exemplary fluorescent tracers based on Clozapine, Amitriptyline and AZD1283.
(§2) HiBiT-GPCR DNA constructs were diluted in 10 mM Tris pH 8 to a final concentration of 0.01 μg/μL, arrayed in 96-well plates and stored at −20 °C. For transfection, HEK293 cells were suspended in Opti-MEM (without phenol red) supplemented with 2% fetal bovine serum (Seradigm) and 100 units/mL penicillin–streptomycin (Gibco) at a final concentration of 220,000 cells/mL and dispensed into white 96-well plates at 90 μL/well. Subsequent transfections and screens were carried using an Agilent Bravo Automated Liquid Handling Platform. First, the 96-well HiBiT DNA arrays were diluted 25-fold in Opti-MEM (without serum or phenol red) to a final concentration of 0.0004 μg/μL and 20 μL of the diluted DNAs were transferred into new 96-well plates. Next, promoterless carrier DNA (1 μg/μL) was diluted 25-fold (0.04 μg/μL) and then dispensed into the diluted arrays at 20 μL/well. Following brief mixing, Viafect transfection reagent (Promega) diluted 16-fold into Opti-MEM was dispensed into the plates at 40 μL/well. After mixing by pipetting, plates were incubated for 10 min on the pipetting station deck. The DNA-transfection reagent complexes were then added to plates containing cells. To facilitate the screen, 10 μL of DNA-transfection reagent complexes were added in duplicates to the top 4 and bottom 4 rows, resulting in two identical 48-well arrays per plate. Plates with transfected cells were incubated for 18–20 h at 37 °C/5% CO2. A screen of each tracer across the entire library using two different concentrations requires duplicate plates of transfected cells. Depending on the number of tracers being screened, transfections can be scaled up using the same ratios. The next day, for each tracer, four 20× screening solutions in tracer dilution buffer (Promega) were prepared: two duplicates at final concentration of 20 μM and two duplicates at a final concentration of 2 μM. A competing unmodified compound was added to one of each duplicate at a final concentration of 400 μM. The four resulting solutions were diluted 4-fold in Opti-MEM without serum or phenol red to generate 5× solutions (5 µM and 0.5 µM tracer +/− 100 μM competing compound). To screen the library, a BioTek MultiFlo FX liquid dispenser was used to dispense 22.5 µL of tracer solution to the top 4 rows and 22.5 µL tracer + competing compound solution to the 4 bottom rows. Plates were briefly mixed on an orbital shaker and incubated for 1.5 h at room temperature. […]

[2] = target: T2, NPY1R (Homo sapiens, UniProt P25929); assay: NanoBRET screen HiBiT-NPY1R in HEK293; format: binding
T2 construct: purchased Promega (in-house HiBiT-GPCR construct library, NanoBRET)
T2 sequence (P25929 1-384): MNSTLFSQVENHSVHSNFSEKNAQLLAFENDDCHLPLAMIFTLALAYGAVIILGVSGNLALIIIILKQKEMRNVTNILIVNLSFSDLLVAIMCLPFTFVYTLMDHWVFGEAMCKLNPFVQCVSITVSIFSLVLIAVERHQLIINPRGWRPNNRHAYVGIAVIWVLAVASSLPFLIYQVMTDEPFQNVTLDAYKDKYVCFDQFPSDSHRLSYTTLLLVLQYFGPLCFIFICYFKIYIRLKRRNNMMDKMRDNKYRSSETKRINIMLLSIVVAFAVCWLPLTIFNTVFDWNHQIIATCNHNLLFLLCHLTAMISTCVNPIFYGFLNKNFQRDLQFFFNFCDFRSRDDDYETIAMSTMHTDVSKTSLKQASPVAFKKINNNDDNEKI
Procedure: as §1, §2

Compound | NanoBRET Fold Response ([1]; LGR6, tracer 0.1μM) | NanoBRET Fold Response ([1]; LGR6, tracer 1μM) | NanoBRET Fold Response ([2]; NPY1R, tracer 0.1μM) | NanoBRET Fold Response ([2]; NPY1R, tracer 1μM) | further results
O=C(CCOCCOCCOCCOCCNC(=O)CCc1ccc2n1[B-](F)(F)[N+]1=C(c3ccc[nH]3)C=CC1=C2)NCCCN1CCN(C2=Nc3ccccc3Oc3ccc(Cl)cc32)CC1 [Loxapine-a-2-NB590] | 0.91 | 1.25 | 0.94 | 1.09 | –
CCCn1c(=O)c2[nH]c(-c3ccc(OCC(=O)NCCNC(=O)CCOCCNC(=O)c4ccc(CNC(=O)CCc5ccc6n5[B-](F)(F)[N+]5=C(c7ccc[nH]7)C=CC5=C6)cc4)cc3)nc2n(CCC)c1=O [XAC-3-NB590] | 0.99 | 0.90 | 1.01 | 0.95 | –
CN(C)CCC=C1c2ccccc2CCc2ccc(C(=O)NCCNC(=O)CCOCCOCCOCCOCCNC(=O)CCc3ccc4n3[B-](F)(F)[N+]3=C(c5ccc[nH]5)C=CC3=C4)cc21 [Amitriptyline-a-2-NB590] | – | – | – | – | NanoBRET Fold Response ([1]; tracer at 0.1μM): 0.93; NanoBRET Fold Response ([1]; tracer at 1μM): 0.97; NanoBRET Fold Response ([2]; tracer at 0.1μM): 1.00; NanoBRET Fold Response ([2]; tracer at 1μM): 1.03
COc1ccccc1N1CCN(CCCCN2C(=O)c3ccc(CNC(=O)CCOCCOCCOCCOCCNC(=O)CCc4ccc5n4[B-](F)(F)[N+]4=C(c6ccc[nH]6)C=CC4=C5)cc3C2=O)CC1 [NAN-190-2-NB590] | – | – | 1.02 | 0.94 | –
O=C(CCc1ccc2n1[B-](F)(F)[N+]1=C(c3ccc[nH]3)C=CC1=C2)NCc1ccc(C(=O)NCCOCCOCCNCC(O)COc2cccc3ccccc23)cc1 (stereo not drawn) [Propranolol-3-NB590] | – | – | – | – | NanoBRET Fold Response ([1]; LGR6, 0.1μM): 1.26; NanoBRET Fold Response ([1]; LGR6, 1μM): 1.01; NanoBRET Fold Response ([2]; NPY1R, 0.1μM): 1.08; NanoBRET Fold Response ([2]; NPY1R, 1μM): 0.99
COc1ccccc1N1CCN(CCCCN2C(=O)c3ccc(CNC(=O)CCOCCNC(=O)c4ccc(CNC(=O)CCc5ccc6n5[B-](F)(F)[N+]5=C(c7ccc[nH]7)C=CC5=C6)cc4)cc3C2=O)CC1 [NAN-190-3-NB590] | 1.39 | 0.60 | 0.88 | 0.94 | –
O=C(CCc1ccc2n1[B-](F)(F)[N+]1=C(c3ccc[nH]3)C=CC1=C2)NCc1ccc(C(=O)NCCOCCC(=O)N[C@@H]2CC[C@@]3(O)[C@H]4Cc5ccc(O)c6c5[C@@]3(CCN4CC3CC3)[C@H]2O6)cc1 [Naltrexone-3-NB590] | 1.22 | 0.79 | 0.93 | 1.02 | –
CCOC(=O)c1cc(C#N)c(N2CCC(C(=O)NS(=O)(=O)Cc3ccccc3/C=C/C(=O)NCCNC(=O)CCc3ccc4n3[B-](F)(F)[N+]3=C(c5ccc[nH]5)C=CC3=C4)CC2)nc1C [AZD1283-1-NB590] | – | – | – | – | NanoBRET Fold Response ([1]; LGR6, 0.1μM): 1.27; NanoBRET Fold Response ([1]; LGR6, 1μM): 0.90; NanoBRET Fold Response ([2]; NPY1R, 0.1μM): 1.10; NanoBRET Fold Response ([2]; NPY1R, 1μM): 1.04
COc1ccc2[nH]c(-c3ccc(CNC(=O)CCOCCOCCOCCOCCNC(=O)CCc4ccc5n4[B-](F)(F)[N+]4=C(c6ccc[nH]6)C=CC4=C5)cc3)c(CCNC(C)=O)c2n1 [AzomelatoninICO9-2-NB590] | – | – | – | – | NanoBRET Fold Response ([1]; 0.1μM tracer): 0.62; NanoBRET Fold Response ([1]; 1μM tracer): 0.95; NanoBRET Fold Response ([2]; 0.1μM tracer): 1.15; NanoBRET Fold Response ([2]; 1μM tracer): 0.94
CC(C)N(CC[C@H](c1ccccc1)c1cc(CCNC(=O)CCOCCOCCOCCOCCNC(=O)CCc2ccc3n2[B-](F)(F)[N+]2=C(c4ccc[nH]4)C=CC2=C3)ccc1O)C(C)C [Tolterodine-2-NB590] | 1.39 | 1.36 | 1.16 | 1.00 | –
CN1CCN(C2=Nc3cc(Cl)ccc3N(CC(=O)NCCOCCOCCOCCOCCNC(=O)CCc3ccc4n3[B-](F)(F)[N+]3=C(c5ccc[nH]5)C=CC3=C4)c3ccccc32)CC1 [Clozapine-c-2-NB590] | – | – | – | – | NanoBRET Fold Response ([1]; LGR6, 0.1μM tracer): 0.89; NanoBRET Fold Response ([1]; LGR6, 1μM tracer): 0.91; NanoBRET Fold Response ([2]; NPY1R, 0.1μM tracer): 1.01; NanoBRET Fold Response ([2]; NPY1R, 1μM tracer): 1.01
N#CN=C(NCCCOc1cccc(CN2CCCCC2)c1)NCCNC(=O)CCOCCOCCOCCOCCNC(=O)CCc1ccc2n1[B-](F)(F)[N+]1=C(c3ccc[nH]3)C=CC1=C2 [Aminopotentidine-2-NB590] | 0.96 | 0.88 | 0.99 | 1.01 | –
COc1ccc2c(n1)c(CCNC(C)=O)cn2CCNC(=O)CCc1ccc2n1[B-](F)(F)[N+]1=C(c3ccc[nH]3)C=CC1=C2 [Azamelatonin-1-NB590] | – | – | – | – | NanoBRET Fold Response ([1]; 0.1μM tracer): 1.03; NanoBRET Fold Response ([1]; 1μM tracer): 0.55; NanoBRET Fold Response ([2]; 0.1μM tracer): 0.93; NanoBRET Fold Response ([2]; 1μM tracer): 0.68
CN(CCC=C1c2ccccc2CCc2ccccc21)C(=O)CCOCCOCCOCCOCCNC(=O)CCc1ccc2n1[B-](F)(F)[N+]1=C(c3ccc[nH]3)C=CC1=C2 [Amitriptyline-e-2-NB590] | – | – | – | – | NanoBRET Fold Response ([1]; tracer at 1μM): 1.16
